In brackets after ≈: the same amount, converted by molar mass.
Tests used:
Solubility pH 7.4 = assay type: physicochemical; conditions: aqueous buffer, Table 1
[1] = Microsomal stability (rat); assay type: in vitro ADME; conditions: rat microsomes, Table 1, read-out: Microsomal Stability (rat) T1/2
[2] = test system: Asexual parasites of P. falciparum strain 3D7; test: In vitro drug activity on asexual parasites (SYBR Green assay); assay type: cell-based; conditions: Plasmodium falciparum; Table 1; P. falciparum 3D7 asexual stage, 72 h; read-out: Asexual EC50
Description: Cell culture. Asexual parasites of P. falciparum strain 3D7 were cultured as described previously [Trager W, et al., Journal of Parasitology 2005, 91: 484-486]. Stage III-V gametocytes were selected and enriched with 3-day treatment with 50 mM N-acetylglucosamine (NAG) and the following Percoll density gradient centrifugation after gametocyte production [Tanaka T Q, et al., Molecular and Biochemical Parasitology, 2011, 177: 160-163]. Gametocytes of HB3 and Dd2 strains were produced and then set up for assay in a similar process. HepG2 cells (ATCC, cat. no. 77400) were cultured in 175-cm^2 tissue culture flasks with 30 ml growth medium at 37° C. in a 5% CO2 humidified atmosphere. Growth medium was made with Dulbecco's Modified Eagle Medium with 10% fetal bovine serum (FBS). Growth medium was replaced every other day and cells were passed at 75% confluence.
Asexual parasites of P. falciparum strain 3D7 were cultured as described previously (Trager, W. et al., J. Parasitol. 2005, 91(3): 484-486). Drug activity on asexual stage parasites was tested using a SYBR Green assay as described previously (Eastman, R. T. et al., Antimicrob. Agents Chemother. 2013, 57(1): 425-435; Smilkstein, M. et al., Antimicrob. Agents Chemother. 2004, 48(5): 1803-1806). Briefly, parasites were diluted to 0.5% parasitemia in complete culture medium with 2% hematocrit and drugs diluted in DMSO (<0.5%) and were loaded into a 96-well plate (200 μl/well). No drug and RBC alone wells were included as positive and background controls, respectively, and each testing condition was examined in duplicated. After 72 h incubation under the standard culture condition and a freeze-thaw lysis step at −80° C. and room temperature, 100 μl/well of lysis buffer containing SYBR Green I was added to the parasite culture and incubated for 30 min at room temperature. The fluorescence of each well was measured at 520 nm following excitation at 490 nm using a FLUOstar Optima™ microplate reader (BMG Labtech).
Compounds were screened against gametocytes and asexual parasites as described in Examples 1 and 2.

Row | SMILES | solubility (Solubility pH 7.4) | half-life [1] | EC50 [2]
1 | Cc1ccc(C#N)cc1-n1c(=N)n(C)c2cnc3ccc(-c4ccccc4Cl)cc3c21 [Compound 62, 3-(8-(2-chlorophenyl)-2-imino-3-methyl-2,3-dihydro-1H-imidazo[4,5-c]quinolin-1-yl)-4-methylbenzonitrile] | 7.8 µg/mL (≈ 18.4 µM) | 18.5 min | 0.704 µM
2 | Cn1c(=N)n(-c2ccc(N3CCNCC3)c(C(F)(F)F)c2)c2c3cc(-c4ccc(Cl)cc4)ccc3ncc21 [Compound 72, 8-(4-chlorophenyl)-3-methyl-1-(4-(piperazin-1-yl)-3-(trifluoromethyl)phenyl)-1,3-dihydro-2H-imidazo[4,5-c]quinolin-2-imine] | < 1 µg/mL | > 30 min | 0.258 µM
3 | Cn1c(=N)n(-c2cccc(S(N)(=O)=O)c2)c2c3cc(-c4ccc(Cl)cc4)ccc3ncc21 [Compound 77, 3-(8-(4-chlorophenyl)-2-imino-3-methyl-2,3-dihydro-1H-imidazo[4,5-c]quinolin-1-yl)benzenesulfonamide] | 6.2 µg/mL (≈ 13.4 µM) | > 30 min | 1.4 µM
4 | Cn1c(=N)n(-c2ccccc2F)c2c3cc(-c4ccc(Cl)cc4)ccc3ncc21 [Compound 80, 8-(4-chlorophenyl)-1-(2-fluorophenyl)-3-methyl-1,3-dihydro-2H-imidazo[4,5-c]quinolin-2-imine] | 12.4 µg/mL (≈ 30.8 µM) | > 30 min | 0.955 µM
5 | COc1ccccc1-n1c(=N)n(C)c2cnc3ccc(-c4ccc(Cl)cc4)cc3c21 [Compound 82, 8-(4-chlorophenyl)-1-(2-methoxyphenyl)-3-methyl-1,3-dihydro-2H-imidazo[4,5-c]quinolin-2-imine] | > 41 µg/mL | > 30 min | 1.67 µM
6 | CCCCOC(=O)/N=c1\n(C)c2cnc3ccc(-c4ccc(Cl)cc4)cc3c2n1-c1cc(C#N)ccc1C [Compound 89, butyl (E)-(8-(4-chlorophenyl)-1-(5-cyano-2-methylphenyl)-3-methyl-1,3-dihydro-2H-imidazo[4,5-c]quinolin-2-ylidene)carbamate] | < 1 µg/mL | 6.2 min | 0.601 µM
7 | CCn1c(=N)n(-c2cc(C#N)ccc2C)c2c3cc(-c4ccc(Cl)cc4)ccc3ncc21 [Compound 93, 3-(8-(4-chlorophenyl)-3-ethyl-2-imino-2,3-dihydro-1H-imidazo[4,5-c]quinolin-1-yl)-4-methylbenzonitrile] | 13.6 µg/mL (≈ 31.1 µM) | > 30 min | 0.813 µM
8 | Cc1ccc(C#N)cc1-n1c(=N)n(Cc2ccccc2)c2cnc3ccc(-c4ccc(Cl)cc4)cc3c21 [Compound 94, 3-(3-benzyl-8-(4-chlorophenyl)-2-imino-2,3-dihydro-1H-imidazo[4,5-c]quinolin-1-yl)-4-methylbenzonitrile] | < 1 µg/mL | > 30 min | 9.17 µM
9 | Cc1ccc(C#N)cc1-n1c(=N)n(CCO)c2cnc3ccc(-c4ccc(Cl)cc4)cc3c21 [Compound 95, 3-(8-(4-chlorophenyl)-3-(2-hydroxyethyl)-2-imino-2,3-dihydro-1H-imidazo[4,5-c]quinolin-1-yl)-4-methylbenzonitrile] | 27.4 µg/mL (≈ 60.4 µM) | > 30 min | 2.58 µM
10 | Cn1c(=N)n([C@H]2CC[C@H](N3CCNCC3)CC2)c2c3cc(-c4ccc(Cl)cc4)ccc3ncc21 [Compound 96, 8-(4-chlorophenyl)-3-methyl-1-((1r,4r)-4-(piperazin-1-yl)cyclohexyl)-1,3-dihydro-2H-imidazo[4,5-c]quinolin-2-imine] | > 47 µg/mL | > 30 min | 2.63 µM
11 | Cn1c(=N)n(C2CCN(C3CCNCC3)CC2)c2c3cc(-c4ccc(Cl)cc4)ccc3ncc21 [Compound 97, 1-([1,4′-bipiperidin]-4-yl)-8-(4-chlorophenyl)-3-methyl-1,3-dihydro-2H-imidazo[4,5-c]quinolin-2-imine] | > 47 µg/mL | > 30 min | 5.1 µM
12 | Cn1c(=N)n(C2CC(N3CCNCC3)C2)c2c3cc(-c4ccc(Cl)cc4)ccc3ncc21 (stereo not drawn) [Compound 98, 8-(4-chlorophenyl)-3-methyl-1-(3-(piperazin-1-yl)cyclobutyl)-1,3-dihydro-2H-imidazo[4,5-c]quinolin-2-imine] | > 44 µg/mL | > 30 min | 2.55 µM
13 | Cc1ccc(C#N)cc1-n1/c(=N/S(N)(=O)=O)n(C)c2cnc3ccc(-c4ccc(N)nc4)cc3c21 [Compound 101, (8-(6-aminopyridin-3-yl)-1-(5-cyano-2-methylphenyl)-3-methyl-1,3-dihydro-2H-imidazo[4,5-c]quinolin-2-ylidene)sulfonamide] | 2.2 µg/mL (≈ 4.54 µM) | > 30 min | 0.00307 µM
14 | Cn1c(=N)n(C2CCCCC2)c2c3cc(-c4ccc(Cl)cc4)ccc3ncc21 [Compound 102, 8-(4-chlorophenyl)-1-cyclohexyl-3-methyl-1,3-dihydro-2H-imidazo[4,5-c]quinolin-2-imine] | 22.3 µg/mL (≈ 57 µM) | > 30 min | 4.78 µM

Other lines, results leading:

Row | solubility (Solubility pH 7.4) | half-life [1] | EC50 [2] | SMILES
15 | 5.7 µg/mL (≈ 14.8 µM) | > 30 min | 1.04 µM | Cn1c(=N)n(-c2ccccc2)c2c3cc(-c4ccc(Cl)cc4)ccc3ncc21 [Compound 63, 8-(4-chlorophenyl)-3-methyl-1-phenyl-1,3-dihydro-2H-imidazo[4,5-c]quinolin-2-imine]
16 | 20.8 µg/mL (≈ 50.1 µM) | > 30 min | 1.3 µM | COc1cccc(-n2c(=N)n(C)c3cnc4ccc(-c5ccc(Cl)cc5)cc4c32)c1 [Compound 64, 8-(4-chlorophenyl)-1-(3-methoxyphenyl)-3-methyl-1,3-dihydro-2H-imidazo[4,5-c]quinolin-2-imine]
17 | 4 µg/mL (≈ 10 µM) | > 30 min | 0.382 µM | Cc1cccc(-n2c(=N)n(C)c3cnc4ccc(-c5ccc(Cl)cc5)cc4c32)c1 [Compound 66, 8-(4-chlorophenyl)-3-methyl-1-(m-tolyl)-1,3-dihydro-2H-imidazo[4,5-c]quinolin-2-imine]
18 | < 1 µg/mL | > 30 min | 0.207 µM | Cc1c(C#N)cccc1-n1c(=N)n(C)c2cnc3ccc(-c4ccc(Cl)cc4)cc3c21 [Compound 69, 3-(8-(4-chlorophenyl)-2-imino-3-methyl-2,3-dihydro-1H-imidazo[4,5-c]quinolin-1-yl)-2-methylbenzonitrile]
19 | < 1 µg/mL | > 30 min | 0.443 µM | Cc1ccc(-n2c(=N)n(C)c3cnc4ccc(-c5ccc(Cl)cc5)cc4c32)cc1C#N [Compound 70, 5-(8-(4-chlorophenyl)-2-imino-3-methyl-2,3-dihydro-1H-imidazo[4,5-c]quinolin-1-yl)-2-methylbenzonitrile]
20 | < 1 µg/mL | > 30 min | 0.511 µM | Cc1cc(C#N)cc(-n2c(=N)n(C)c3cnc4ccc(-c5ccc(Cl)cc5)cc4c32)c1 [Compound 71, 3-(8-(4-chlorophenyl)-2-imino-3-methyl-2,3-dihydro-1H-imidazo[4,5-c]quinolin-1-yl)-5-methylbenzonitrile]
21 | > 42 µg/mL | > 30 min | 0.445 µM | CC(=O)c1cccc(-n2c(=N)n(C)c3cnc4ccc(-c5ccc(Cl)cc5)cc4c32)c1 [Compound 74, 1-(3-(8-(4-chlorophenyl)-2-imino-3-methyl-2,3-dihydro-1H-imidazo[4,5-c]quinolin-1-yl)phenyl)ethan-1-one]
22 | 11.7 µg/mL (≈ 25.3 µM) | > 30 min | 1.02 µM | Cn1c(=N)n(-c2cccc(S(C)(=O)=O)c2)c2c3cc(-c4ccc(Cl)cc4)ccc3ncc21 [Compound 75, 8-(4-chlorophenyl)-3-methyl-1-(3-(methylsulfonyl)phenyl)-1,3-dihydro-2H-imidazo[4,5-c]quinolin-2-imine]
23 | > 39 µg/mL | > 30 min | 1.64 µM | Cc1ccccc1-n1c(=N)n(C)c2cnc3ccc(-c4ccc(Cl)cc4)cc3c21 [Compound 81, 8-(4-chlorophenyl)-3-methyl-1-(o-tolyl)-1,3-dihydro-2H-imidazo[4,5-c]quinolin-2-imine]
24 | < 1 µg/mL | > 30 min | 0.658 µM | COc1ccc(-n2c(=N)n(C)c3cnc4ccc(-c5ccc(Cl)cc5)cc4c32)cc1C#N [Compound 84, 5-(8-(4-chlorophenyl)-2-imino-3-methyl-2,3-dihydro-1H-imidazo[4,5-c]quinolin-1-yl)-2-methoxybenzonitrile]
25 | > 41 µg/mL | > 30 min | 3.18 µM | Cc1cccc(C)c1-n1c(=N)n(C)c2cnc3ccc(-c4ccc(Cl)cc4)cc3c21 [Compound 99, 8-(4-chlorophenyl)-1-(2,6-dimethylphenyl)-3-methyl-1,3-dihydro-2H-imidazo[4,5-c]quinolin-2-imine]

Source: patent US20210188843A1, “QUINOLINE COMPOUNDS AND THEIR PREPARATION AND USE AS ANTIMALARIAL AGENTS” (The United States of America,as represented by the …, priority 2018, published 2021)
